Laboratory results taken from patent US6310067A, “Urocanic acid derivatives” (Senju Pharmaceutical Co., Ltd., priority 1998, dated 2001).
Read-outs that look alike come from different tables or passages of the source.

What was measured:
[1] = tested on: allergy; settings: background statement, cited from earlier work
[2] = tested on: type IV allergy (efferent phase), mouse contact-type dermatitis in auricles; assay: Type IV allergy (efferent phase), DNFB contact-type dermatitis in auricles; type: in vivo, Male C57BL/6J mice; settings: n = 9-11, 1 hr before induction
Protocol: The present compound was assessed for its effect on type IV allergy (efferent phase) through oral and topical administrations, using a DNFB contact-type dermatitis model.
(§1) Male C57BL/6J mice purchased from Clea Japan, Inc. were used.
The mice which had their abdominal hair removed on the previous day were sensitized by applying to them on a 1-cm^2 area of their abdominal surface 25 μl of 0.5% dinitrofluorobenzene (DNFB) dissolved in acetone, under anesthesia with ketamine hydrochloride: xylazine hydrochloride (9:1). Five days after the sensitization procedure, 10 μl of 0.1% DNFB dissolved in acetone was applied to the outer side of their right auricles to induce infammation. Twenty-four hrs after the induction of inflammation, the thickness of the auricles was measured with a dial thickness gauge (manufactured by Ozaki Seisakusho) and the rate of edema calculated by comparing it with pre-induction thickness.
The test compounds were administered either orally or by topically applying 15 μl of its solution onto the outer side of the auricles, 1 hr before the induction.

[3] = tested on: rat type I allergy (PCA reaction); assay: Rat type I allergy: passive anaphylaxis (PCA) reaction, oral administration; type: in vivo, Male Wistar rats; settings: 100 mg/5 ml/kg oral, 60 min before PCA provocation; for Optical density: 625 nm, mean ± standard deviation, n = 5-6; for Inhibition rate (%): vs CMC-Na
Protocol: The present compound was assessed for its effect on type I allergy through oral administration.
The compound of Example 1 100 mg/5 ml/kg
Male Wistar rats purchased from SLC Japan were used in the test.
The rats were intracutaneously injected in the back with 100 μl of antiserum (16-fold dilution) under pentobarbital anesthesia. Forty-eight hrs later, the animals were injected with 5 ml/kg of a mixture of ovalbumin (25 mg/kg) and Evans blue (12.5 mg/kg) to provoke passive anaphylaxis (PCA) reaction.
The rats were sacrificed 30 min after the provocation of PCA reaction and dye-infiltrated region of their back skin was cut out, the dye extracted with 5 ml of formamide and its optical density measured (625 nm).
Each of the test compounds was orally administered 60 min before the provocation of PCA reaction.

[4] = tested on: type IV allergy (afferent phase), mouse contact-type dermatitis in auricles; assay: Type IV allergy (afferent phase), DNFB contact-type dermatitis in auricles, oral administration; type: in vivo, Male C57BL/6J mice; settings: 30 mg/kg, 1 hr before sensitization, vs distilled water, n = 7-9
Protocol: The present compound was assessed for its effect on type IV allergy (afferent phase) through oral administrations, using a DNFB contact-type dermatitis model.
as §1
The test compounds were orally administered to the mice. One hr later, sensitization was performed by applying 30 μl of 0.5% DNFB acetone solution. Five days after the sensitization procedure, 10 μl of 0.1% DNFB dissolved in acetone was applied to their right auricles to induce contact-type dermatitis. Then, 24 hrs later, the thickness of the auricles was measured and the rate of edema calculated.

[5] = Table 4, topically applied (as titled), concentration 0.5%, vs CMC-Na
[6] = topical, concentration 0.2%, vs methanol
[7] = topical, concentration 0.5%, vs methanol

O=C(O)/C=C/c1c[nH]cn1 [urocanic acid, Urocanic acid]
effect on delayed allergy ([1]; listed as Urocanic acid): suppressive effect on delayed allergy
effect on delayed allergy [1]: by no means satisfactory

COC(=O)C=Cc1cn(-c2nccs2)cn1 [Example 9, 1-(2,5-Thiazolyl)urocanic Acid Methyl Ester]
Inhibition rate (%) [2, 5]: 89.9%

COC(=O)C=Cc1cn(CCN2CCN(C(c3ccccc3)c3ccccc3)CC2)cn1 [Example 1, 1-(Diphenylmethylpiperazinylethyl)urocanic Acid Methyl Ester]
Inhibition rate (%) [2, 6]: 73.5%
Inhibition rate (%) [2, 7]: 83.9%
Optical density [3]: 0.413 ± 0.051
Inhibition rate (%) [3]: 28.7%
Inhibition rate (%) [4]: 47.8%

COC(=O)C=Cc1cn(CC=Cc2ccccc2)cn1 [Example 17, 1-(3-Phenyl-2-propenyl)urocanic Acid Methyl Ester]
Inhibition rate (%) [2, 5]: 70.5%

O=C(O)C=Cc1cn(CCN2CCN(C(c3ccccc3)c3ccccc3)CC2)cn1 [Example 2, 1-(Diphenylmethylpiperazinylethyl)urocanic Acid]
Inhibition rate (%) [4]: 56.2%

COC(=O)C=Cc1cn(-c2ccc(N)cc2)cn1 [Example 5, 1-(4-Aminophenyl)urocanic Acid Methyl Ester]
Inhibition rate (%) [2, 6]: 99.9%

COC(=O)C=Cc1cn(CCN2CCN(C(c3ccccc3)c3ccccn3)CC2)cn1 (stereo not shown) [Example 3, 1-[Phenyl(2-pyridyl)methylpiperazinylethyl]urocanic Acid Methyl Ester]
Inhibition rate (%) [2, 6]: 47.5%
Inhibition rate (%) [2, 7]: 79.2%
Optical density [3]: 0.409 ± 0.033
Inhibition rate (%) [3]: 29.2%
Inhibition rate (%) [4]: 49.5%
